Data on ten compounds can be found in patent publication US4119657A, “Novel peroxycarbonate” (priority 1976, dated 1978).

The conditions of data set [1]: 105° C. The text has this: The susceptibility of the peroxycarbonate to heat decomposition can be ascertained from its half life and the foaming temperature thereof.
Data set [2] in a line: Foaming decomposition temperature. It counts as physicochemical.
The conditions of data set [3]: prior art peroxide, peroxy group in the copolymer; cited from earlier work.
For data set [4] the following is noted: prior art peroxide; cited from earlier work.

Where two headings read alike, the source gives them in different places.

Compound `C=CCOC(=O)OOC(C)(C)CC(C)(C)C` [1,1,3,3-tetramethylbutylperoxy allyl carbonate] returned a Half life in data set [1] (solvent benzene) of 1.4 h. Further, in data set [2], the foaming decomposition temperature was 103.5 °C.
Turning to `C=C(C)COC(=O)OOC(C)(C)CC(C)(C)C` [1,1,3,3-tetramethylbutylperoxy methallyl carbonate], in data set [1] (solvent benzene), the Half life was 1.1 h. In addition, the foaming decomposition temperature in data set [2] was 106.5 °C.
The compound `CC(C)C(=O)OOC(C)(C)C` [t-butyl peroxy isobutyrate, t-butyl peroxyisobutyrate, reference compound] gave a Half life in data set [1] (solvent benzene) of 0.37 h.
With `C=CCOC(=O)OOC(C)(C)C` [t-butylperoxy allyl carbonate], the Half life was found to be 3.9 h in data set [1] (solvent benzene) and 6.9 h in data set [1] (solvent toluene). For the same compound, the foaming decomposition temperature in data set [2] was determined as 117.5 °C.
For `CC(C)OC(=O)OOC(C)(C)C` [t-butylperoxy isopropyl carbonate, reference compound], in data set [1] (solvent benzene), the Half life is 4.1 h.
For `C=C(C)COC(=O)OOC(C)(C)C` [t-butylperoxy methallyl carbonate], the figures for the Half life in data set [1] (solvent benzene) and in data set [1] (solvent toluene) were 2.9 h and 4.9 h, respectively. Moreover, in data set [2], the foaming decomposition temperature stood at 117.5 °C.
On to `C/C=C/C(=O)OOC(C)(C)C` [t-butylperoxycrotonate], for which the “decomposition activity, in words” value in data set [3] was “active at low temperature”.
For the compound butyl peroxymethacrylate, the “storage stability, in words” value in data set [4] is on record as “not stable during storage”.
Regarding t-hexylperoxy allyl carbonate, the Half life in data set [1] (solvent benzene) is 3.8 h. Also, the foaming decomposition temperature in data set [2] amounted to 107.3 °C.
Take t-hexylperoxy methallyl carbonate: the Half life in data set [1] (solvent benzene) is 2.9 h. The compound also showed a foaming decomposition temperature in data set [2] of 115.5 °C.
